According to patent publication US7465708B2, “Branched cationic copolymers and methods for antimicrobial use” (priority 2002, dated 2008):
Like-named read-outs stand apart in the source and are kept apart here. Positions of bridges follow the written chain, without caps; N, C: chain ends. Chains are numbered I, II in the order given. No end group written: not given here.

How the values were obtained:
MDA-MB-435 cells = experiment: In vitro toxicity: reduction in cell number after incubation with polymers; type: cell-based
Description: In vitro toxicity of these polymers was then examined on a malignant cell line (MDA-MB-435).

mice = experiment: Acute in vivo toxicity after IV injection; conditions: for side effects of surviving mice (scale): one symbol per mouse; for histology of major organs: mice who died from polymers at higher dosages; for in vivo toxicity (in words): administered intravenously
Description: One of the major limitations of cationic peptides is their potenitial toxicity when administered systemically. As a result, we tested the acute toxicity of these polymers after injecting them IV. […] Conversely, linear polymers that had minimal to moderate antibacterial properties had the greatest in vivo toxicity. […] Even if one arginine adjacent to the histidine residue replaces the amino terminal lysine in the HK polymer (e.g., HK-R), the polymer was still very toxic when administered intravenously. The in vivo toxicity of linear HK polymers from most to least is as follows: HR>HK-R>>HK. […] There were parallels between in vitro and in vivo toxicity studies (Tables 2 and 3). […] The data is consistent with linear polymers interacting and inhibiting ionic channels of the cardiovascular system (similar to neurotoxins). Intravenous injection of linear polymers with arginine or lysines adjacent (or near) to histidines should be avoided.

[1] = tested on: gram negative bacteria E. coli transformed with a kanamycin-resistant plasmid; experiment: In vitro bacteria inhibition (MIC, turbidity O.D. 600 nm in LB broth); type: cell-based
Description: Bacteria; A gram negative bacteria E. coli transformed with a kanamycin-resistant plasmid was used in these experiments and grown in LB media (Biofluids, Rockville, Md.).
For in vitro studies, several polymers were tested for their ability to inhibit gram negative bacteria. […] The histidine and lysine ratio and their sequence order have an important role in the-polymers' effects. […] Since it is likely that H^3KN4b has the greatest ability to chelate key transitional elements, chelation of key elements in LB media, separate from the polymer's role of binding to the bacteria membrane, is unlikely to have a major role in the inhibition of bacteria. • 3) The sequence order of lysine and histidine in the branched polymer has a major role in the inhibition of bacteria. Altering these sequences affects the antibacterial activity of […]. Sufficient cationic amino acids are critical for binding whereas the exact function of histidine is unclear. Data supports that cationic amino acids need to be evenly distributed in branches, particularly at N-terminal ends. Too many cationic amino acids in the polymer, however, reduce antibacterial activity. • 4) Histidine may have a role in the interruption of iron transport systems and/or it may enhance the hydrophobic interactions of the polymer with the bacteria membrane.

[2] = 50 μg/ml, 6 h incubation in DMEM/10% serum, counted 24 h later vs untreated cells
[3] = 150 μg/ml, 6 h incubation in DMEM/10% serum, counted 24 h later vs untreated cells
[4] = 100 μl/ml, 6 h incubation in DMEM/10% serum, counted 24 h later vs untreated cells

Substance | number of mice who survive treatment / number of mice in treatment group (mice; 75 μg IV) | number of mice who survive treatment / number of mice in treatment group (mice; 150 μg IV) | side effects of surviving mice (scale) (mice; 150 μg IV) | number of mice who survive treatment / number of mice in treatment group (mice; 300 μg IV) | number of mice who survive treatment / number of mice in treatment group (mice; 600 μg IV) | histology of major organs (mice) | also measured
KHKHKHKHKGKHKHKHKHK [linear HK, [K-H-K-H-K-H-K-H-K-G-K-H-K-H-K-H-K-H-K]] | 2/2 | 2/2 | ++, + | 2/2 | 0/2 | no evidence of pathology | Reduction In Cell Number (MDA-MB-435 cells): 68%; in vitro toxicity (in words, measured by cell number) (MDA-MB-435 cells): significantly more toxic; side effects of surviving mice (scale) (mice; 300 μg IV): +++, +++
I: KHKHHKHHKHHKHHKHHKHKK / II: KHKHHKHHKHHKHHKHHKHK (amide I:21-II:C) [H^2K2b, [K-H-H-K-H-H-K-H-H-K-H-H-K-H-H-K-H-K]2K] |  |  |  |  |  |  | antimicrobial activity (in words) [1]: only moderate reduction on bacteria growth
RHKHKHKHKGKHKHKHKHK [HK-R, [R-H-K-H-K-H-K-H-K-G-K-H-K-H-K-H-K-H-K]] | 2/2 | 2/2 | +, + | 0/2 | 0/2 | no evidence of pathology | in vivo toxicity (in words) (mice): very toxic
I: KHKHHKHHKHHKHHKHHKHKKKK / II: KHKHHKHHKHHKHHKHHKHK / III: KHKHHKHHKHHKHHKHHKHK / IV: KHKHHKHHKHHKHHKHHKHK (amide I:21-IV:C, I:22-III:C, I:23-II:C) [H^2K4b, [KHKHHKHHKHHKHHKHHKHK]4K3] | 2/2 | 2/2 |  | 2/2 | 2/2 |  | Reduction In Cell Number (MDA-MB-435 cells; [2]): 5%; Reduction In Cell Number (MDA-MB-435 cells; [3]): 22%; Reduction In Cell Number (MDA-MB-435 cells; [4]): 12%
I: KHHHKHHHKHHHKHHHKKKK / II: KHHHKHHHKHHHKHHHK / III: KHHHKHHHKHHHKHHHK / IV: KHHHKHHHKHHHKHHHK (amide I:18-IV:C, I:19-III:C, I:20-II:C) [H^3K4b, [K-H-H-H-K-H-H-H-K-H-H-H-K-H-H-H-K]4K3] | 2/2 | 2/2 |  | 2/2 | 2/2 |  | Reduction In Cell Number (MDA-MB-435 cells; [2]): 0%; Reduction In Cell Number (MDA-MB-435 cells; [3]): 0%; Reduction In Cell Number (MDA-MB-435 cells; [4]): 0%; in vitro toxicity (in words, measured by cell number) (MDA-MB-435 cells; MDA-MB-435 cells): no observed toxicity; toxicity after repeated dosing (in words) (mice; three 600 μg dosages, each separated by 4 h): no evidence of toxicity
I: KHHHNHHHKHHHKHHHKKKK / II: KHHHNHHHKHHHKHHHK / III: KHHHNHHHKHHHKHHHK / IV: KHHHNHHHKHHHKHHHK (amide I:18-IV:C, I:19-III:C, I:20-II:C) [H^3KN4b, [K-H-H-H-N-H-H-H-K-H-H-H-K-H-H-H-K]4K3] |  |  |  |  |  |  | antimicrobial activity (in words) [1]: moderate antimicrobial activity
RHRHRHRHRGRHRHRHRHR [linear RH, [R-H-R-H-R-H-R-H-R-G-R-H-R-H-R-H-R-H-R]] | 2/2 | 2/2 | +++, + | 0/2 | 0/2 | no evidence of pathology | side effects of surviving mice (scale) (mice; 75 μg IV): + (moderate reduction in activity in for less than 1 min); in vivo toxicity (in words) (mice): most toxic of the linear polymers
I: KHKHKHKHKGKHKHKHKHKKKK / II: KHKHKHKHKGKHKHKHKHK / III: KHKHKHKHKGKHKHKHKHK / IV: KHKHKHKHKGKHKHKHKHK (amide I:20-IV:C, I:21-III:C, I:22-II:C) [HK4b, [K-H-K-H-K-H-K-H-K-G-K-H-K-H-K-H-K-H-K]4K3] | 2/2 | 2/2 |  | 2/2 | 2/2 |  | 
